Assay results taken from patent US8466290B2, “STAT3 inhibitor containing quinolinecarboxamide derivative as active ingredient” (Pharma IP General Incorporated Association, priority 2008, dated 2013).
Read-outs that look alike come from different tables or passages of the source.

Columns and labels:
[1] = test system: STAT3; experiment: STAT3 transcription inhibition test (reporter gene method, oncostatin M stimulation); format: cell-based; details: compound at 100 μM, STAT3 reporter HeLa stable cell line, oncostatin M 10 ng/mL, 4 hours; for inhibition at 100 µM: Homo sapiens, read-out: STAT3 transcription inhibitory activity (%)
Method: The inhibition of STAT3 transcription was evaluated by using STAT3 reporter HeLa stable cell line (Panomics Inc., catalog No. RC0003), a cell line for the reporter gene method, and performing the following method according to the appendix included therein.
STAT3 reporter HeLa stable cell line subcultured and maintained in a Dulbecco's modified Eagle's medium (DMEM) containing 10% fetal bovine serum, 100 units/mL penicillin, and 100 μg/mL streptomycin was inoculated at a concentration of 40000 cells/well to a 96-well plate (white) and attached to the plate by overnight incubation at 37° C. under 5% CO2. After addition of each evaluation compound adjusted to various concentrations (adjusted with a DMSO solution), the cells were precultured for 1 hour. Then, oncostatin M for activating STAT3 was added at a final concentration 10 ng/mL, and the cells were further cultured at 37° C. under 5% CO2 for 4 hours. Luciferase activity derived from the cells was determined using Steady-Glo Luciferase Assay System (Promega Corp.), and STAT3 transcriptional activity scores were calculated according to the following formula: STAT3 transcriptional activity score (%)=100×(Lchem−L0)/(LDMSO−L0) Lo: luminescence intensity obtained without stimulation with oncostatin M Lchem: luminescence intensity obtained by the addition of a test sample LDMSO: luminescence intensity obtained by the addition of only a solvent for dissolving a test sample

[2] = test system: MDA-MB-435S; experiment: MDA-MB-435S cell growth inhibitory activity; format: cell-based; details: for inhibition at 20 µM: Homo sapiens, read-out: Cell growth inhibitory activity (%)
Method: […] Each well was washed three times with a medium. Then, after addition of 100 μL/well of a medium and 20 μL/well of CellTiter 96 AQueous One Solution Reagent (Promega Corp.), the cells were incubated at 37° C. for 2 hours in the presence of 5% CO2.

[3] = test system: Human lymphoma SCC-3 cells; experiment: SCC-3 cell growth inhibition test (MTT method); format: cell-based; details: 72-hour culture, read-out: Cell growth inhibitory activity (IC50: μM)
Method: Simultaneously with cell inoculation, each test compound diluted to various concentrations with an RPMI medium was added to each well.

[4] = test system: human lymphoma SCC-3 cells; experiment: Evaluation using human lymphoma-transplanted nude mice; details: SCC-3 cancer-bearing nude mice; for T/C (%): tumor volume ratio vs control
Method: 1×10^6 human lymphoma SCC-3 cells (containing Matrigel) were subcutaneously transplanted to the flank part of each 6-week-old male nude mouse (BALB/cA-nu/nu, CLEA Japan, Inc.). After the transplantation, the tumor volumes [major axis (mm) and minor axis (mm)] of the SCC-3 cancer-bearing mice were measured using an electronic vernier caliper (CD-10, Mitutoyo Corp.), and tumor volumes [mm^3: (major axis)x(minor axis)^2/2] were calculated. SCC-3 cancer-bearing mice whose tumor volume reached 50 to 300 mm^3 were selected and divided based on the tumor volumes into groups each containing 5 individuals. A test compound was suspended in a 0.5% methylcellulose solution and orally administered at a dose of 0.01 mL/g body weight once a day for 5 days (Day 0 (administration initiation day) to Day 4). To a control group, none was administered. The tumor volumes of the SCC-3 cancer-bearing mice were measured every day from the initiation of test compound administration to evaluate antitumor effect. The antitumor effect was assessed by calculating T/C (%) values according to the following formula:
V: tumor volume on every assay day
V0: tumor volume on the administration initiation day (V/V0 of the test compound group)/(V/V0 of the control group)×100

[5] = 40 mg/kg orally once a day for 5 days
[6] = 160 mg/kg orally once a day for 5 days

Row | Compound | inhibition at 100 µM [1] [%] | inhibition at 20 µM ([2]; compound at 20 μM, 72 hours) [%] | IC50 ([3]; Homo sapiens) [µM] | also measured
1 | Cc1ccc2nc(-c3ccccc3)cc(C(=O)Nc3nnc(-c4ccco4)o3)c2c1 [Ia-70, N-[5-(2-furyl)-1,3,4-oxadiazol-2-yl]-6-methyl-2-phenyl-4-quinolinecarboxamide] | > 100 | > 100 | 1.9 | 
2 | O=C(Nc1nnc(-c2ccco2)o1)c1cc(-c2ccc(Cl)s2)nc2ccccc12 [Ia-19, 2-(5-chloro-2-thienyl)-N-[5-(2-furyl)-1,3,4-oxadiazol-2-yl]-4-quinolinecarboxamide] | 77 | 98 | 2.1 | 
3 | O=C(Nc1nnc(-c2ccco2)o1)c1cc(-c2cccc3ccccc23)nc2ccccc12 [Ia-60, N-[5-(2-furyl)-1,3,4-oxadiazol-2-yl]-2-(1-naphthyl)-4-quinolinecarboxamide] | > 100 | 100 | 2.1 | 
4 | O=C(Nc1nnc(-c2ccco2)o1)c1cc(-c2ccc([N+](=O)[O-])cc2)nc2ccccc12 [Ia-52, N-[5-(2-furyl)-1,3,4-oxadiazol-2-yl]-2-(4-nitrophenyl)-4-quinolinecarboxamide] | > 100 | 68 | 2.2 | 
5 | O=C(Nc1nnc(-c2ccco2)o1)c1cc(-c2ccccc2)nc2cc(Br)ccc12 [Ia-24, 7-bromo-N-[5-(2-furyl)-1,3,4-oxadiazol-2-yl]-2-phenyl-4-quinolinecarboxamide] | 72 | 94 | 1.9 | 
6 | O=C(Nc1nnc(-c2ccco2)o1)c1cc(-c2ccccc2)nc2c(Cl)cc(Cl)cc12 [Ia-74, 6,8-dichloro-N-[5-(2-furyl)-1,3,4-oxadiazol-2-yl]-2-phenyl-4-quinolinecarboxamide] | 97 | 82 | 0.7 | 
7 | CCCCOc1cc(C(=O)Nc2nnc(-c3ccco3)o2)c2ccccc2n1 [Ia-35, 2-(1-butoxy)-N-[5-(2-furyl)-1,3,4-oxadiazol-2-yl]-4-quinolinecarboxamide] | 57 |  | 5.6 | 
8 | CC(C)(C)OC(=O)c1cccc(-c2cc(C(=O)Nc3nnc(-c4ccco4)o3)c3ccccc3n2)c1 [Ia-44, 2-(3-tert-butoxycarbonylphenyl)-N-[5-(2-furyl)-1,3,4-oxadiazol-2-yl]-4-quinolinecarboxamide] | > 100 | 99 | 1.8 | 
9 | O=C(Nc1nnc(-c2ccco2)o1)c1cc(-c2ccccc2)nc2ccc(OC(F)(F)F)cc12 [Ia-71, N-[5-(2-furyl)-1,3,4-oxadiazol-2-yl]-2-phenyl-6-trifluoromethoxy-4-quinolinecarboxamide] | > 100 |  | 0.3 | inhibition at 20 µM ([2]; 72 h): 85%
10 | O=C(Nc1nnc(-c2ccco2)o1)c1cc(-c2ccccc2)nc2ccc(F)cc12 [Ia-67, 6-fluoro-N-[5-(2-furyl)-1,3,4-oxadiazol-2-yl]-2-phenyl-4-quinolinecarboxamide] | 90 |  | 2.1 | 
11 | Cc1cccc2c(C(=O)Nc3nnc(-c4ccco4)o3)cc(-c3ccccc3)nc12 [Ia-25, N-[5-(2-furyl)-1,3,4-oxadiazol-2-yl]-8-methyl-2-phenyl-4-quinolinecarboxamide] | 77 |  | 6 | 
12 | O=C(Nc1nnc(-c2ccco2)o1)c1cc(-c2ccccc2)nc2ccccc12 [Ia-1, N-[5-(2-furyl)-1,3,4-oxadiazol-2-yl]-2-phenyl-4-quinolinecarboxamide] | 54 |  | 5.9 | inhibition at 20 µM ([2]; 72 h): 89%; The number of deaths [4, 5]: 0/5; T/C (%) [4, 5]: 38%; The number of deaths [4, 6]: 0/5; T/C (%) [4, 6]: 40%
13 | O=C(Nc1nnc(-c2ccco2)o1)c1cc(-c2ccccc2)nc2ccc(Cl)cc12 [Ia-22, 6-chloro-N-[5-(2-furyl)-1,3,4-oxadiazol-2-yl]-2-phenyl-4-quinolinecarboxamide] | 76 | 98 | 0.9 | The number of deaths [4, 5]: 0/5; T/C (%) [4, 5]: 56%
14 | O=C(Nc1nnc(-c2ccco2)o1)c1cc(-c2ccc(Cl)cc2)nc2ccccc12 [Ia-47, 2-(4-chlorophenyl)-N-[5-(2-furyl)-1,3,4-oxadiazol-2-yl]-4-quinolinecarboxamide] | > 100 | 82 | 2 | 
15 | O=C(Nc1nnc(-c2ccco2)o1)c1cc(/C=C/c2ccccc2)nc2ccccc12 [Ia-65, N-[5-(2-furyl)-1,3,4-oxadiazol-2-yl]-2-trans-styryl-4-quinolinecarboxamide] |  |  |  | STAT3 transcription inhibitory activity (%) [1]: >100%; Cell growth inhibitory activity (%) ([2]; compound at 20 μM, 72 hours): 69%; IC50 [3]: 2.6 µM
16 | CC(C)(C)OC(=O)c1ccc(-c2cc(C(=O)Nc3nnc(-c4ccco4)o3)c3ccccc3n2)cc1 [Ia-53, 2-(4-tert-butoxycarbonylphenyl)-N-[5-(2-furyl)-1,3,4-oxadiazol-2-yl]-4-quinolinecarboxamide] | > 100 | 100 | 0.7 | 
17 | N#Cc1ccc(-c2cc(C(=O)Nc3nnc(-c4ccco4)o3)c3ccccc3n2)cc1 [Ia-17, 2-(4-cyanophenyl)-N-[5-(2-furyl)-1,3,4-oxadiazol-2-yl]-4-quinolinecarboxamide] | 80 | 54 | 4.6 | 
18 | COc1ccc2nc(-c3ccccc3)cc(C(=O)Nc3nnc(-c4ccco4)o3)c2c1 [Ia-23, N-[5-(2-furyl)-1,3,4-oxadiazol-2-yl]-6-methoxy-2-phenyl-4-quinolinecarboxamide] | 100 | 50 |  | 
19 | Cc1ccc(-c2cc(C(=O)Nc3nnc(-c4ccccc4)o3)c3ccccc3n2)cc1 [Ia-i, N-(5-phenyl-1,3,4-oxadiazol-2-yl)-2-(4-tolyl)-4-quinolinecarboxamide] | 85 |  | 2.7 | 
20 | Cc1cc(C)c2nc(-c3cccs3)cc(C(=O)Nc3nnc(-c4ccco4)o3)c2c1 [Ia-33, N-[5-(2-furyl)-1,3,4-oxadiazol-2-yl]-6,8-dimethyl-2-(2-thienyl)-4-quinolinecarboxamide] | 58 | 79 | 1.3 | 
21 | O=C(Nc1nnc(-c2ccco2)o1)c1cc(-c2ccccc2)nc2cc(Cl)ccc12 [Ia-72, 7-chloro-N-[5-(2-furyl)-1,3,4-oxadiazol-2-yl]-2-phenyl-4-quinolinecarboxamide] | > 100 |  | 2.2 | 
